Reference: PMC2185977 (The Journal of Experimental Medicine, 1980)

What was measured:
IgMWEA [1] = experiment: Quantitative precipitin inhibition, IgMWEA + Bacto agar 20C extract; format: binding, human; settings: for times more active than sodium pyruvate on a molar basis: inhibiting precipitation of IgMWEA by agar; for inhibition of precipitation of IgMWEA by agar: even at 100 μmol inhibitor
IgMMAY = experiment: Quantitative precipitin inhibition, IgMMAY + Klebsiella K21; format: binding, human; settings: for times more active than pyruvate in inhibiting the Klebsiella K21 precipitin reaction: IgMMAY; for inhibition of precipitation of IgMMAY by Klebsiella K21: 25 μl 1:5 dilution IgMMAY + 1.6 μg Klebsiella K21, Fig. 3B
anti-Klebsiella K11 = settings: cited from earlier work
IgMWEA [2] = experiment: Precipitin inhibition, IgMWEA-Helix pomatia galactan; format: binding, human; settings: data not shown
IgMWEA [3] = experiment: Quantitative precipitin reaction of purified IgMWEA with polysaccharides; format: binding, human; settings: ~8 μg N purified IgMWEA, total volume 350 μl, Fig. 1A

Compound	inhibition of precipitation of IgMMAY by Klebsiella K21 (IgMMAY)	precipitin reaction with IgMWEA (IgMWEA [3])	other results
CO[C@H]1O[C@@H]2CO[C@@](C)(C(=O)O)O[C@@H]2[C@H](O)[C@H]1O (single isomer, unassigned) [methyl 4,6pyDGalα R isomer]			times more active than sodium pyruvate on a molar basis (IgMWEA [1]): > 20 times; times more active than pyruvate in inhibiting the Klebsiella K21 precipitin reaction (IgMMAY): 150 times
CO[C@H]1O[C@@H]2CO[C@@](C)(C(=O)O)O[C@@H]2[C@H](O)[C@H]1O (single isomer, unassigned) [methyl 4,6pyDGalα S isomer]	inactive		inhibition of Klebsiella K11-anti-Klebsiella K11 (anti-Klebsiella K11): does not inhibit
CO[C@@H]1O[C@@H]2COC(C)(C(=O)O)O[C@@H]2[C@H](O)[C@H]1O (single isomer, unassigned) [methyl 4,6pyDGalβ R isomer, methyl 4,6-O-(1-carboxyethylidene) ~-o-galactopyranoside]			times more active than sodium pyruvate on a molar basis (IgMWEA [1]): > 20 times; times more active than pyruvate in inhibiting the Klebsiella K21 precipitin reaction (IgMMAY): 150 times
O=P(O)(O)O[C@H]1O[C@H](CO)[C@H](O)[C@H](O)[C@H]1O [D-galactose-1-phosphate]	no inhibition		
O=C[C@H](O)[C@@H](O)[C@@H](O)[C@H](O)COP(=O)(O)O [D-galactose-6-phosphate]	no inhibition		
O=P(O)(O)O[C@H]1O[C@H](CO)[C@@H](O)[C@H](O)[C@H]1O [D-glucose-1-phosphate, D-glucose-l-phosphate]	no inhibition		
O=C[C@H](O)[C@@H](O)[C@@H](O)[C@H](O)CO [DGal, D-galactose]	Neither DGal, its methyl a- and/~-glycosides, nor any of the other neutral sugars tested gave any inhibition		inhibition of precipitation of IgMWEA by agar (IgMWEA [1]): no inhibition
CO[C@H]1O[C@H](CO)[C@H](O)[C@H](O)[C@H]1O [methyl α-DGal, methyl a-DGal]	no inhibition		inhibition of precipitation of IgMWEA by agar (IgMWEA [1]): no inhibition
COC1OC(CO)C(O)C(O)C1O (stereo not drawn) [methyl β-DGal, methyl /~-DGal]	no inhibition		inhibition of precipitation of IgMWEA by agar (IgMWEA [1]): no inhibition
CC(O)C(=O)[O-].[Na+] (stereo not shown) [sodium lactate]			inhibition of precipitin reaction of IgMWEA-Helix pomatia galactan (IgMWEA [2]): inactive
CCC(=O)[O-].[Na+] [sodium propionate]			inhibition of precipitin reaction of IgMWEA-Helix pomatia galactan (IgMWEA [2]): inactive
CC(=O)C(=O)O [sodium pyruvate, Sodium pyruvate]	better than lactate and propionate		inhibition of precipitin reaction of IgMWEA-Helix pomatia galactan (IgMWEA [2]): inhibited
Larch arabinogalactan		inactive	
agarose		inactive	
dextran sulfate		did react	
heparin		failed to precipitate	
keratosulfate		failed to precipitate	
xanthan gum		failed to precipitate	
